Experimental data reported in PMC3672142, “A Binding-Site Barrier Affects Imaging Efficiency of High Affinity Amyloid-Reactive Peptide Radiotracers In Vivo” (PLoS ONE, 2013).
No end group written: not given here.

Experiments:
AA amyloid = system: AA amyloid; design: species or system H2-Ld-huIL-6 Tg Balb/c transgenic mice; settings: mouse, in vivo, iv
Procedure: AA amyloidosis was induced in H2-Ld-huIL-6 Tg Balb/c transgenic mice that constitutively express the human interleukin-6 transgene, [21] by iv administration of 10 µg of isolated amyloid enhancing factor (AEF – a suspension of AA amyloid fibril extract, [22]) in 100 µL of sterile phosphate-buffered saline (PBS). Mice used in these studies were 4–6 wk post induction. These studies were carried out in strict accordance with a protocol approved by the University of Tennessee Institutional Animal Care and Use Committee. All procedures were approved by the IACUC and were performed in accordance with the guidelines provided by OLAW and the Guide for the Care and Use of Laboratory Animals.
Mice, wild type or those with AA-amyloid, were injected iv in the lateral tail vein with ∼10 µg (∼150 µCi) of radioiodinated (^123I or ^125I) peptide p5, p5R, p5R(1–24) or p5R mixed with 1 mg of unlabeled p5R peptide. […]
Samples of muscle, liver, spleen, pancreas, kidneys, heart, stomach, small and large intestines and lung tissue were harvested post mortem from every mouse. Each sample was placed into a tared, plastic vial, weighed and the ^125I or ^123I radioactivity measured using an automated Wizard 3 gamma counter (1480 Wallac Gamma Counter, Perkin Elmer). The biodistribution data were expressed as % injected dose/g tissue (% ID/g). […]

[1] = system: cardiac and pancreatic amyloid; settings: SAP imaging; no reference printed at this sentence (refs [14], [15] for SAP imaging); cited from earlier work
From the text: Currently, there are no FDA-approved agents available in the USA for quantitative whole body imaging of visceral amyloid in vivo. […] However, there is no evidence that either this or the recently FDA-approved Aβ tracer Amyvid™ will facilitate detection of amyloid deposits in other visceral organs. Numerous amyloid-binding radiotracers have been described, e.g ...

Row | Substance | radioactivity in liver, spleen, pancreas and intestines compared to WT mice (AA amyloid) | detection of cardiac and pancreatic amyloid [1]
1 | GGGYSRAQRAQARQARQAQRAQRAQARQARQ [p5R] | significant radioactivity seen in the liver, spleen, pancreas, and intestines as compared to the WT mice | 
2 | SAP: serum amyloid P component, used as 123I-SAP for planar scintigraphic imaging of amyloid |  | at best, poorly detected
